Source: US11591337B2, “Substituted [1,2,4]triazolo[4,3-a]pyrazines as modulators of mGlu5 receptors” (Recordati Industria Chimica e Farmaceutica S.p.A., priority 2018, dated 2023)

Assays:
[1] = target: T1, mGlu5 receptor (Homo sapiens, UniProt P41594); assay: Functional activity at mGlu5 receptor as calcium fluorescence measurements; assay type: cell-based
T1 construct: Human mGluR5 open reading frame (ORF), comprehensive of the stop codon, were cloned into the pcDNA4/TO/myc-His™ A vector; expressed in transfected cells
T1 sequence (P41594 21-1212): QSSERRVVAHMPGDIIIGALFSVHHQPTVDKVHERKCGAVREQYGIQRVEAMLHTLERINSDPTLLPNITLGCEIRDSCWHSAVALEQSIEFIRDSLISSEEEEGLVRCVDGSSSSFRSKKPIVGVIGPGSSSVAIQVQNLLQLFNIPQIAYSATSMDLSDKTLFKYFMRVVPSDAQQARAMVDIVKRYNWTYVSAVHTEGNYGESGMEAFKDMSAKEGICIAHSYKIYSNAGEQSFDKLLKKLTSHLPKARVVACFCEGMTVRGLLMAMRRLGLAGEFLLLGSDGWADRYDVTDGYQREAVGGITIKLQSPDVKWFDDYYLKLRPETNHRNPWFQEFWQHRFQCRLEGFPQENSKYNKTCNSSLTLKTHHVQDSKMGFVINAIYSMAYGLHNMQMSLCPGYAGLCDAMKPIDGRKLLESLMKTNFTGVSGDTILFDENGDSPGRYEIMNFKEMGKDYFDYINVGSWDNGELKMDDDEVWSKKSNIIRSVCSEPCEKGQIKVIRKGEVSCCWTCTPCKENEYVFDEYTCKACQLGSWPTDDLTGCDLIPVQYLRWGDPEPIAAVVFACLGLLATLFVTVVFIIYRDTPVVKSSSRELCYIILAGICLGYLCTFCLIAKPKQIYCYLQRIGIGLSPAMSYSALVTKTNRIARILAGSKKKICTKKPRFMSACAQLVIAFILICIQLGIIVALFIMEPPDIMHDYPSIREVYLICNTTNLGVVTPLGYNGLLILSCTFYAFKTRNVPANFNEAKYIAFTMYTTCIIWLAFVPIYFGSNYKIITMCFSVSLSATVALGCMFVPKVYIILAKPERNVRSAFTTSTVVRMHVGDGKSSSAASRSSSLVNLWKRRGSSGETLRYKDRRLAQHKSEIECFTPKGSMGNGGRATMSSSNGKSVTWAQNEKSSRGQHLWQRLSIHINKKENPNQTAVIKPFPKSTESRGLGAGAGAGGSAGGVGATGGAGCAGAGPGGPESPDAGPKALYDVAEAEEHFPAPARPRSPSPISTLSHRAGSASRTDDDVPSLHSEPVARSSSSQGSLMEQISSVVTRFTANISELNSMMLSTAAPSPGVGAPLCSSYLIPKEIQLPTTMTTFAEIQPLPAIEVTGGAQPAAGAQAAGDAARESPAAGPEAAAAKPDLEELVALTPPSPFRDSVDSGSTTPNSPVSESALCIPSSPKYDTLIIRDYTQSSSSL
Description: (§1) Cell lines stably transfected were generated using inducible expression vectors encoding human mGlu5 receptor using the Tetracycline-Regulated Expression system (T-REx™ system, Invitrogen, Life Technologies). Human mGluR5 open reading frame (ORF), comprehensive of the stop codon, were cloned into the pcDNA4/TO/myc-His™ A vector, carrying the TetO2. The insertion site was HindIII-PstI for mGluR5 receptors. The obtained constructs were then transfected into the T-REx CHO™ cell line using the FuGENE protocol (Roche); the CHO T-REx™ cell line stably expresses the Tet repressor (from the pcDNA6/TR plasmid) under the selection of blasticidin, 10 μg/ml. Stable clones were obtained selecting with zeocin 1 mg/ml and maintaining in ULTRA CHO medium (LONZA) supplemented with dialyzed FBS, zeocin, blasticidin, at 37° C., in an atmosphere of 5% CO2. The expression of h-mGluR5 receptors was de-repressed with 1 μg/ml tetracycline for 18 h before binding experimentation, while the expression of h-mGluR5 receptors was derepressed respectively with 3 ng/ml and 10 ng/ml tetracycline for 18 h before calcium fluorescence experimentation.
Cells were seeded into black-walled, clear-bottom, 96-well plates at a density of 80000 cell/well, in RPMI (without Phenol Red, without L-glutamine; Gibco LifeTechnologies, CA) supplemented with 10% dialyzed FBS. Following 18-h incubation with tetracycline, the cells were loaded with 2 mM Ca^2+- sensitive fluorescent dye Fluo-4/AM (Molecular Probes) in Hanks' balanced saline solution (HBSS, Gibco LifeTechnologies, CA) with […] Hepes (Sigma) and 2.5 mM probenecid (Sigma), for 1 h at 37° C. The cells were washed three times with HBSS to remove extracellular dye. Fluorescence signals were measured by using the fluorescence microplate reader Flexstation III (Molecular Devices) at sampling intervals of 1.5 s for 60 s.
The antagonist potency was determined using the EC80 of the quisqualate used as agonist and the potentiation of mGlu5 activation was determined using the EC20 of the agonist (quisqualate or glutamate). […]

[2] = target: T1, mGlu5 receptor; assay: Radioligand binding assay ([3H]MPEP) at cloned mGluR5; details: CHO T-REx h-mGluR5 cells, 4 nM [3H]MPEP, 60 min at 25° C.; read-out: affinity (Ki) for mGlu5 receptor
Description: as §1, with “Stable clones were obtained selecting with zeocin 1 mg/ml and maintaining in ULTRA CHO medium (LONZA) supplemented with dialyzed FBS, zeocin, blasticidin, at 37° C., in an atmosphere of 5% CO2.” left out
Affinity at transmembrane glutamate metabotropic mGluR5 receptor subtypes was evaluated according to the methods of Anderson (Anderson et al., J Pharmacol. Exp. Ther., (2002), Vol. 303(3), pp. 1044-51), with some modifications. […] Non-specific binding was determined in the presence of 10 μM MPEP. […] The filters were then washed with cold buffer and the radioactivity retained on the filters was counted by liquid scintillation spectrometry (Betaplate 1204 BS-Wallac). […]

Row | EC50 ([1]; potentiation of mGlu5 activation at EC20 of the agonist (quisqualate or glutamate), read-out: positive allosteric activity EC50) [nM] | Ki [2] [nM] | type of allosteric modulation [1] | IC50 ([1]; antagonist potency at EC80 of quisqualate, read-out: negative allosteric modulation activity IC50) [nM] | SMILES
1 | 294 | 33.8 | – | – | O=C(c1cccc(Cl)c1)N1CCn2c(C#Cc3cccc(Cl)c3)nnc2C1 [Example 8, (3-Chlorophenyl)-[3-[2-(3-chlorophenyl)ethynyl]-6,8-dihydro-5H-[1,2,4]triazolo[4,3-a]pyrazin-7-yl]methanone]
2 | – | 32 | negative allosteric modulator | 60.9 | CCN(C)C(=O)N1CCn2c(C#Cc3cccc(C)c3)nnc2C1 [Example 40, N-Ethyl-N-methyl-3-[2-(m-tolyl)ethynyl]-6,8-dihydro-5H-[1,2,4]triazolo[4,3-a]pyrazine-7-carboxamide]
